In patent publication US20130197043A1, “USE OF THE FETAL REPROGRAMMING OF A PPAR AGONIST” (SNU R&DB FOUNDATION, priority 2010, published 2013):

Columns and labels:
[1] = tested on: mice subjected to fetal reprogramming; assay: Respiratory exchange ratio (RER) measurement using Oximax; assay type: in vivo
Description: RER is a ratio of the amount of CO2 exhaled to O2 inhaled in one breath. The RER is 1.0 when carbohydrate is mainly used for energy production, while the RER is 0.7 when fat is used. […] The RER experiment using Oximax (Columbus) was conducted in order to evaluate whether or not this increase in slow muscle fiber generation actually influenced mouse energy metabolism. […] Since the RER has a periodic value depending on the time, the RER difference between the two groups was more clearly compared by using AUL, in order to check the RER difference between the two groups. The average AUL value of the control group was 107.4±1.4. Whereas, the average AUL value of the mouse group subjected to fetal reprogramming was 102.2±2.8, which was lower than that of the mouse control group (FIG. 17).
The present inventors checked a difference in lipid oxidation capacity between the two groups by using the following equations.
Carbohydrate oxidation=(4.51·RER−3.18)·VO2
Lipid oxidation=1.67·(1−RER)·VO2
As the calculation result, it may be seen that the mouse group to which PPAR δ agonist (CMDD1111) was administered during the fetal programming period used more lipid by average 44% (6.6 mg/kgmin vs. 9.5 mg/kgmin) but less carbohydrate by 20% (48 mg/kgmin vs. 38 mg/kgmin), as compared with the control group to which vehicle was administered. Therefore, it may be seen that the mice in which PPAR δ was activated during the fetal programming period had increased slow muscle fiber generation and thus increased the lipometabolism.

[2] = tested on: cytosolic calcium in differentiated muscle cells; assay: Analysis of cytosolic calcium (Flou4, confocal microscope); assay type: cell-based, mouse; details: 300 nM, 10 mM caffeine, calcium-free Kreb solution
Description: An experiment using a calcium-specific dye reagent, Flou4(Molecular probe), was conducted in order to confirm the effect on concentration of cytosolic calcium by the changes of RYR, SERCA, and PLN. The experiment method is as follows. The isolated muscle cells were grown on a culture plate with an attached glass slide through primary culture, and then differentiated into myotube while being treated with 300 nM of PPAR δ agonist (CMDD1111). Flou4 (final concentration: 5 μM) dye reagent was put into the differentiated muscle cells, which were then cultured for 30 minutes. The calcium-free Kreb solution was used as a culture medium to measure the change of cytosolic calcium, and treatment with 10 mM of caffeine was conducted to activate calcium channels. Intracellular calcium ion change was measured by using a confocal microscope. As the measurement result, the retention time of cytosolic calcium was increased by 43% (592±60 versus 847±77 sec) in the muscle cell to which PPAR δ agonist (CMDD1111) was added (FIG. 13). The reason was that expressions of RYR regulating calcium efflux and PLN suppressing calcium influx in the sarcoplasmic membrane were increased by PPAR δ. […]

[3] = Pharmacokinetic experiment: passage of PPAR δ agonist through the placenta; assay type: in vivo, mice
Description: Pharmacokinetic experiment was conducted in order to confirm whether or not a PPAR δ agonist used in the present study, CMDD1111, passes through the placenta. CMDD 1111 was administered to 16-day pregnant mice at a concentration of 10 mg/kg, and then concentrations of the compound distributed in the bloods of mother animals and fetuses were analyzed for 24 hours. […] In the case of the fetuses, the blood concentration thereof tended to increase with the time, unlike the mother animals, and the maximum blood concentration thereof was 8.9 μM.

[4] = tested on: mice subjected to fetal reprogramming; assay: Glucose tolerance test (GTT) of fetal-reprogrammed mice after high-fat feedstuff; assay type: in vivo; details: GTT after 17 weeks high-fat feedstuff
Description: The present researchers conducted the glucose tolerance test (GTT) after the mice were fed with high-fat feedstuff for 17 weeks to induce diabetes. The experiment was conducted following the method proposed by Kelly, and challenged with over-night fasting in order to confirm the role thereof in the muscle. Glucose ([…]) was administered by using intraperitoneal injection, and then the blood glucose level change was measured for 2 hours. As a result, the fasting blood glucose level was lower, the maximum blood glucose concentration was lower, and the glucose clearance time was shorter in the mice of the administration group as compared with the mice of the control group (FIG. 19). At the same time, the insulin tolerance test was conducted (FIG. 20). To sum the above results up, it may be seen that animals subjected to fetal reprogramming by PPAR δ activation enhanced endurance due to an increase in slow muscle fibers and prevented and suppressed the occurrence of obesity and diabetes due to high-fat diet.

PPAR δ-deficient cells = assay: Primary cell culture and real-time PCR gene expression analysis, PPAR δ-deficient cells; assay type: cell-based, mouse; details: 300 nM
Description: However, it has not been reported that the PPARs response element (PPRE) is present at promoters of these three genes. Therefore, the present inventors resected the muscle of the mouse with the removal of PPAR δ gene and conducted primary culture, in order to verify whether or not the increases in expressions of the above three genes are PPAR δ-dependent. After hind legs of a five-day-old fetus was resected, primary culture was conducted by the same method as developed by Rando (Rando et al, J. Cell. Biol., 1994, 125, 1275-1287). Myoblast, after being cultured, was transferred to a 6-well plate, and then differentiated into myotube while being treated with 300 nM of PPAR δ agonist (CMDD1111). The differentiated myotube was further treated with 300 nM of PPAR δ agonist (CMDD1111) for 2 days, and then total RNA was extracted by using a TRIzol reagent (Gibco). The extracted RNA was subjected to reverse transcription, to synthesize cDNA, which was then used as a template for real-time PCR analysis.
As the result of real-time PCR analysis, expressions of PDK4 and CPT-1, known to be directly regulated by PPAR δ, were increased by 2.2 fold and 1.5 fold, respectively. However, there was no change in PPAR δ-deficient cells. This means that expressions of PDK4 and CPT-1 are PPAR δ-dependently regulated. […]

Cc1cc(SC(Cc2ccccc2)c2sc(-c3ccc(C(F)(F)F)cc3)nc2C)ccc1OCC(=O)O (stereo not shown) [CMDD1111]
carbohydrate oxidation ([1]; calculated from RER and VO2): 38 mg/kgmin
less carbohydrate used versus vehicle control ([1]; calculated from RER and VO2): 20%
lipid oxidation ([1]; calculated from RER and VO2): 9.5 mg/kgmin
more lipid used versus vehicle control ([1]; calculated from RER and VO2): 44%
average AUL value of RER ([1]; mouse group subjected to fetal reprogramming): 102.2±2.8
increase of retention time of cytosolic calcium [2]: 43%
retention time of cytosolic calcium [2]: 847 ± 77 s
passage through the placenta ([3]; 16-day pregnant mice, 10 mg/kg): passed through the placenta
half-life ([3]; female, mouse, blood, oral, mother animals, 16-day pregnant mice, 10 mg/kg, read-out: half-time (t1/2) (converted)): 540 min
Cmax ([3]; female, mouse, blood, oral, mother animals, 16-day pregnant mice, 10 mg/kg, read-out: maximum blood concentration (Cmax)): 38 µM
Tmax ([3]; female, mouse, blood, oral, mother animals, 16-day pregnant mice, 10 mg/kg, read-out: time for reaching the maximum blood concentration (Tmax)): 1 h
maximum blood concentration ([3]; fetuses, mother given 10 mg/kg, 24 hours): 8.9 µM
fasting blood glucose level versus control [4]: lower
glucose clearance time versus control [4]: shorter
maximum blood glucose concentration versus control [4]: lower
expressions of PDK4 and CPT-1 (PPAR δ-deficient cells): no change
